Data from patent US20260070911A1, “INHIBITORS OF TAM RECEPTORS” (National Health Research Institutes, priority 2022, published 2026).
pIC50: −log10 of the molar value.

Assays:
Format in all cases: biochemical
MERTK = molecular target: T1, MERTK (Homo sapiens, UniProt Q12866); assay: MERTK enzymatic assay (Kinase Glo); conditions: purified kinase, ATP 12 μM, read-out: MER Enzymatic Inhibition (%)
T1 sequence (Q12866 21-999): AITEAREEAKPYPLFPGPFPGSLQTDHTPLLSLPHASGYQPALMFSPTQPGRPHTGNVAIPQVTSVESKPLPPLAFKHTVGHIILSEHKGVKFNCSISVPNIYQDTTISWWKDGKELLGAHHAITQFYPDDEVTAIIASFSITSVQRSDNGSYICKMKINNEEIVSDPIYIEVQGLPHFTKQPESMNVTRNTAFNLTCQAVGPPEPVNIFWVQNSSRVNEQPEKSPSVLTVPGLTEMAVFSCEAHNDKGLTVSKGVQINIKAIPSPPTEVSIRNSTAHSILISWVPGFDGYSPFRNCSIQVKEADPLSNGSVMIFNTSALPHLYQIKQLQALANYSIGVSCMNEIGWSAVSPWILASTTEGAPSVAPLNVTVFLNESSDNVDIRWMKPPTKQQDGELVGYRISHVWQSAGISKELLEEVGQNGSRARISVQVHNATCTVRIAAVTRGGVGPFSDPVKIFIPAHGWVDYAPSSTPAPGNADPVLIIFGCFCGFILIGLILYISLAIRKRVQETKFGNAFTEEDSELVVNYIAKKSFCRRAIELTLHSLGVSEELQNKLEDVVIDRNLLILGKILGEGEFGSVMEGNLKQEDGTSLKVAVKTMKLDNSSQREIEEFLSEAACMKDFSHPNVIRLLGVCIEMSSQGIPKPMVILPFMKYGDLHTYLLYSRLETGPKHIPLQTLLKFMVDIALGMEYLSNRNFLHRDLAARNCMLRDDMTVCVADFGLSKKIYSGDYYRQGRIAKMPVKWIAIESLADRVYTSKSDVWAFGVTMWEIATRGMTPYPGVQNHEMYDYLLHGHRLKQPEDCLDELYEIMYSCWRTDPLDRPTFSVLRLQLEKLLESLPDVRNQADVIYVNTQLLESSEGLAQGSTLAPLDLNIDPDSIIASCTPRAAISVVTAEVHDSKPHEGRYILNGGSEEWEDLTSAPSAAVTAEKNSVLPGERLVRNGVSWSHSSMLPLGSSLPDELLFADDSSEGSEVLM
Description: (§1) A purified kinase (AXL or MERTK) was incubated with a compound or DMSO (control) for 15 minutes in an assay buffer (25 mM Tri s pH 7.4, 10 mM MgCl2, 4 mM MnCl2, 2 mM DTT, 0.0100 BSA, 0.02% TritonX-100, 0.0100 Brij35 and 0.5 mM Na3VO4 for MERTK; and 40 mM Tri s pH 7.4, 20 mM MgCl2, 2 mM DTT, 0.01% BSA and 0.5 mM Na3VO4 for AXL). […] The mixture was incubated for 3 hours at 30° C. The luminescence was calculated to determine the kinase activity using a Kinase Glo assay kit for MERTK and an ADP-Glo Kinase Assay kit for AXL following the manufacture's instructions (Promega Corp., Madison, Wisconsin).
(§2) A study was conducted to compare exemplary compounds of formula (I) in inhibiting TAM activities, including MERTK, AXL, and TYRO3. An enzymatic assay was used in the study. A purified Kinase (i.e., MERTK, AXL, or TYRO3) was incubated with a compound or DMSO (control) for around 15 minutes in an assay buffer (25 mM Tris pH 7.4, 10 mM MgCl2, 4 mM MnCl2, 2 mM DTT, 0.01% BSA, 0.02% TritonX-100, 0.01% Brij35 and 0.5 mM Na3VO4 for MERTK; 40 mM Tris pH 7.4, 20 mM MgCl2, 2 mM DTT, 0.01% BSA and 0.5 mM Na3VO4 for AXL; and 25 mM Tris pH 7.4, 10 mM MgCl2, 4 mM MnCl2, 2 mM DTT, 0.01% BSA and 0.5 mM Na3VO4 for TYRO3). […] The mixture was incubated for 3 hours at 30° C. The luminescence was calculated to determine the kinase activity using a Kinase Glo assay kit for MERTK and an ADP-Glo Kinase assay kit for AXL and TYRO3 following the manufacture's instructions (Promega). Inhibition rates and half maximal inhibitory concentration (IC50) values were calculated. High percentage inhibition rates and low IC50 values are indicatives of high potency of the test compound.

AXL = molecular target: T2, AXL (Homo sapiens, UniProt P30530); assay: AXL enzymatic assay (ADP-Glo); conditions: purified kinase, ATP 50 μM, read-out: AXL Enzymatic Inhibition (%)
T2 sequence (P30530 26-894): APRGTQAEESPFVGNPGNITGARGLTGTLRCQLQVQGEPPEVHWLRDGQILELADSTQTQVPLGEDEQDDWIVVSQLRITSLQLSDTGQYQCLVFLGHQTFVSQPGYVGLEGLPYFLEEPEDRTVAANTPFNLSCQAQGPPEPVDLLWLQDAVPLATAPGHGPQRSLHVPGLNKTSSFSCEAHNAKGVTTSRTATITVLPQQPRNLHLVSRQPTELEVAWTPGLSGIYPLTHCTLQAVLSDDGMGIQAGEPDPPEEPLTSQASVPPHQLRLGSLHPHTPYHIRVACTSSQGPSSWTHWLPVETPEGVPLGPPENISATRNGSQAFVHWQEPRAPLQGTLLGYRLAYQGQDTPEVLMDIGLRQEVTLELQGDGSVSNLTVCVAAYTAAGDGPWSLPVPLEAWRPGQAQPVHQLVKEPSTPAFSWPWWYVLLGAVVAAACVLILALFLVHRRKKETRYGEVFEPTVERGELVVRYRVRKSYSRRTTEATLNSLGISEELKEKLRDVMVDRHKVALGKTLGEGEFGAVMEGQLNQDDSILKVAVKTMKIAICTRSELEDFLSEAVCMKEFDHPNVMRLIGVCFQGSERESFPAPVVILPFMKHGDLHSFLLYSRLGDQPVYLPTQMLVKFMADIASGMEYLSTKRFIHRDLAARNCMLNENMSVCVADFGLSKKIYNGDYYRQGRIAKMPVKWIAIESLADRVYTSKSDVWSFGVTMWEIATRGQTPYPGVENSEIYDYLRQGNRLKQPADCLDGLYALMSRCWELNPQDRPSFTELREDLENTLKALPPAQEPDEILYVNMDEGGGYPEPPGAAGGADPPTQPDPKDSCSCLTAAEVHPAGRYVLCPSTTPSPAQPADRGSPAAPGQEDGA
Description: as §1, §2

MER/AXL = assay: Dual MER/AXL inhibition (enzymatic); conditions: class for both MER and AXL
Description: as §1

Compound | pIC50 (MERTK) | pIC50 (AXL) | pIC50 (MER/AXL)
Nc1cccc(-c2c(-c3ccccc3)oc3ncnc(Oc4ccc(NC(=O)c5cccn(-c6ccc(F)cc6)c5=O)cc4)c23)c1 [Compound 9] | 4.30 to 7.00 | 4.30 to 7.00 | 4.30 to 7.00
CC(=O)Nc1cccc(-c2c(C)oc3ncnc(Oc4ccc(NC(=O)c5cccn(-c6ccc(F)cc6)c5=O)cc4)c23)c1 [Compound 50] | 4.30 to 7.00 | 7.00 to 7.70 | 4.30 to 7.00
Cc1ccn(-c2ccc(F)cc2)c(=O)c1C(=O)Nc1ccc(Oc2ncnc3oc(-c4cnn(C)c4)c(-c4cccc(N)c4)c23)cc1 [Compound 71] | > 7.70 | > 7.70 | > 7.70
CC(=O)Nc1cccc(-c2c(-c3cnn(C)c3)oc3ncnc(Oc4ccc(NC(=O)c5cccn(-c6ccc(F)cc6C)c5=O)cc4)c23)c1 [Compound 74] | 4.30 to 7.00 | 4.30 to 7.00 | 4.30 to 7.00
O=C(Nc1ccc(Oc2ncnc3ccsc23)cc1)c1cccn(-c2ccc(F)cc2)c1=O [Compound 41] | 4.30 to 7.00 | 7.00 to 7.70 | 4.30 to 7.00
Cn1cc(-c2oc3ncnc(Oc4ccc(NC(=O)c5ccc[nH]c5=O)cc4)c3c2-c2cccc(N)c2)cn1 [Compound 77] | 4.30 to 7.00 | 4.30 to 7.00 | 4.30 to 7.00
CN(C(=O)c1cccn(-c2ccc(F)cc2)c1=O)c1ccc(Oc2ncnc3oc(-c4cnn(C)c4)c(-c4cccc(N(C)S(C)(=O)=O)c4)c23)cc1 [Compound 64] | 4.30 to 7.00 | 4.30 to 7.00 | 4.30 to 7.00
O=C(Nc1ccc(Oc2ncnc3[nH]cc(-c4ccccn4)c23)cc1)c1cccn(-c2ccc(F)cc2)c1=O [Compound 17] | 4.30 to 7.00 | > 7.70 | 4.30 to 7.00
CCOc1ccn(-c2ccc(F)cc2)c(=O)c1C(=O)Nc1ccc(Oc2ncnc3oc(-c4cnn(C)c4)c(-c4cccc(N)c4)c23)cc1 [Compound 19] | 7.00 to 7.70 | > 7.70 | 7.00 to 7.70
CC(=O)Nc1cccc(-c2c(-c3ccsc3)oc3ncnc(Oc4ccc(NC(=O)c5cccn(-c6ccc(F)cc6)c5=O)cc4)c23)c1 [Compound 59] | 4.30 to 7.00 | > 7.70 | 4.30 to 7.00
CC(=O)Nc1cccc(-c2c(-c3cnn(C)c3)oc3ncnc(Oc4ccc(NC(=O)c5cccn(C)c5=O)cc4)c23)c1 [Compound 75] | 4.30 to 7.00 | 4.30 to 7.00 | 4.30 to 7.00
Cn1cc(-c2oc3ncnc(Oc4ccc(NC(=O)c5cc6c(n(-c7ccccc7)c5=O)CCCC6=O)cc4)c3c2-c2cccc(N)c2)cn1 [Compound 61] | 7.00 to 7.70 | > 7.70 | 7.00 to 7.70
CC(=O)Nc1cccc(-c2n[nH]c3ncnc(Oc4ccc(NC(=O)c5cccn(-c6ccc(F)cc6)c5=O)cc4)c23)c1 [Compound 35] | 4.30 to 7.00 | 7.00 to 7.70 | 4.30 to 7.00
CC(=O)Nc1cccc(-c2c(-c3cnn(C)c3)oc3ncnc(Oc4ccc(NC(=O)c5cc6c(n(-c7ccc(F)cc7)c5=O)CCCC6=O)cc4)c23)c1 [Compound 69] | 4.30 to 7.00 | > 7.70 | 4.30 to 7.00
Nc1cccc(-c2c[nH]c3ncnc(Nc4ccc(NC(=O)c5cccn(-c6ccc(F)cc6)c5=O)cc4)c23)c1 [Compound 14] | 4.30 to 7.00 | > 7.70 | 4.30 to 7.00

Now from value to compound:

pIC50 (MERTK) | pIC50 (AXL) | pIC50 (MER/AXL) | Compound
4.30 to 7.00 | 4.30 to 7.00 | 4.30 to 7.00 | COc1nn(-c2ccc(C)cc2)cc1C(=O)Nc1ccc(Oc2ncnc3oc(-c4cnn(C)c4)c(-c4cccc(CN(C)C)c4)c23)cc1 [Compound 138]
7.00 to 7.70 | > 7.70 | 7.00 to 7.70 | Cn1cc(-c2oc3ncnc(Oc4ccc(NC(=O)c5cccn(-c6ccc(F)nc6)c5=O)cc4)c3c2-c2cccc(N)c2)cn1 [Compound 80]
7.00 to 7.70 | > 7.70 | 7.00 to 7.70 | Cn1cc(-c2oc3ncnc(Oc4ccc(NC(=O)c5cccn(-c6ccc(F)c(F)c6)c5=O)cc4)c3c2-c2cccc(N)c2)cn1 [Compound 94]
4.30 to 7.00 | 4.30 to 7.00 | 4.30 to 7.00 | Cn1cc(-c2oc3ncnc(Oc4ccc(NC(=O)c5cn(C)n(-c6ccc(F)cc6)c5=O)cc4)c3c2-c2cccc(CN3CCNCC3)c2)cn1 [Compound 130]
4.30 to 7.00 | 4.30 to 7.00 | 4.30 to 7.00 | CN(C)Cc1cccc(-c2n[nH]c3ncnc(Oc4ccc(NC(=O)c5cn(C)n(-c6ccc(F)cc6)c5=O)cc4)c23)c1 [Compound 139]
> 7.70 | > 7.70 | > 7.70 | CN(C)Cc1cccc(-c2c(-c3cnn(C)c3)oc3ncnc(Oc4ccc(NC(=O)c5cccn(-c6ccc(F)c(F)c6)c5=O)cc4)c23)c1 [Compound 95]
4.30 to 7.00 | 7.00 to 7.70 | 4.30 to 7.00 | Cn1cc(-c2oc3ncnc(Oc4ccc(NC(=O)c5ccc(-c6ccc(F)cc6)o5)cc4)c3c2-c2cccc(N)c2)cn1 [Compound 117]
4.30 to 7.00 | 4.30 to 7.00 | 4.30 to 7.00 | CC(=O)Nc1cccc(-c2c(-c3cnn(C)c3)oc3ncnc(Oc4ccc(NC(=O)c5ccc(-c6ccc(F)cc6)o5)cc4)c23)c1 [Compound 118]
4.30 to 7.00 | 7.00 to 7.70 | 4.30 to 7.00 | Cn1cc(-c2oc3ncnc(Oc4ccc(NC(=O)c5ccc(-c6cccc(F)c6)o5)cc4)c3c2-c2cccc(N)c2)cn1 [Compound 119]
4.30 to 7.00 | 4.30 to 7.00 | 4.30 to 7.00 | CN(C)Cc1cccc(-c2c(-c3cnn(C)c3)oc3ncnc(Oc4ccc(NC(=O)c5cccn(C6CCCCC6)c5=O)cc4)c23)c1 [Compound 84]
7.00 to 7.70 | > 7.70 | – | CN(C)Cc1cccc(-c2c(-c3cnn(C)c3)oc3ncnc(Oc4ccc(NC(=O)c5cccn(-c6ccc(F)c(Cl)c6)c5=O)cc4)c23)c1 [Compound 97]
